Reference: patent US20260356819A1, “OXOISOINDOLINYL-SUBSTITUTED […] DERIVATIVE AND USE THEREOF” (GLUETACS THERAPEUTICS (SHANGHAI) CO., LTD., priority 2023, published 2026)

How the values were obtained:
Format in all cases: cell-based
Settings in all cases: compounds at 50 nM and 500 nM
CK1α = molecular target: T1, CK1α (Homo sapiens, UniProt P48729+Q96SW2); experiment: Western blot degradation of CK1α in hPBMCs (24 h)
T1 construct: The supernatant was aspirated as the extracted total cell protein; endogenous in cells; host or cells: human peripheral blood mononuclear cells (hPBMCs)
T1 sequence (P48729 whole entry): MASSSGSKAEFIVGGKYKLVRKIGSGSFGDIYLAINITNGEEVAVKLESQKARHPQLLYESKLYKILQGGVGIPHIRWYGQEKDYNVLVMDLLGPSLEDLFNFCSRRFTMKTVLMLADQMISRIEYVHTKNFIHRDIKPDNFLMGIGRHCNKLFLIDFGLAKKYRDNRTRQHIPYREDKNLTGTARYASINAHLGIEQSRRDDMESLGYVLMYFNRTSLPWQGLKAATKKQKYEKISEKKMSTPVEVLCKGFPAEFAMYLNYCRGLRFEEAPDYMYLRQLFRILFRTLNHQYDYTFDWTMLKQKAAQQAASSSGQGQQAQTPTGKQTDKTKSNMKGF
T1 sequence (Q96SW2 whole entry): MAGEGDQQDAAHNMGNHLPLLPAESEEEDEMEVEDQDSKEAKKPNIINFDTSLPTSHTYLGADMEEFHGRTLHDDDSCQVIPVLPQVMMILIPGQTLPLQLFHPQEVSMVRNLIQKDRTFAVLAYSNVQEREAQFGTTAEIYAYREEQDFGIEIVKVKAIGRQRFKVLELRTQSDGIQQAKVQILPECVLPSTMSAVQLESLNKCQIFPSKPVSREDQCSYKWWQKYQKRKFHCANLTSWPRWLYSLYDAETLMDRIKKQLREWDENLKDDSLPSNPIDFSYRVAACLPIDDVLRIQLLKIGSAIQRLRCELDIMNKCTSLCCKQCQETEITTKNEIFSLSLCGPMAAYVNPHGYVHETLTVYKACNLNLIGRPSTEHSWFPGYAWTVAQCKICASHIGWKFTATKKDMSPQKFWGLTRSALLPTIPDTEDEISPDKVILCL
T1 sequence (Q16531 whole entry partner): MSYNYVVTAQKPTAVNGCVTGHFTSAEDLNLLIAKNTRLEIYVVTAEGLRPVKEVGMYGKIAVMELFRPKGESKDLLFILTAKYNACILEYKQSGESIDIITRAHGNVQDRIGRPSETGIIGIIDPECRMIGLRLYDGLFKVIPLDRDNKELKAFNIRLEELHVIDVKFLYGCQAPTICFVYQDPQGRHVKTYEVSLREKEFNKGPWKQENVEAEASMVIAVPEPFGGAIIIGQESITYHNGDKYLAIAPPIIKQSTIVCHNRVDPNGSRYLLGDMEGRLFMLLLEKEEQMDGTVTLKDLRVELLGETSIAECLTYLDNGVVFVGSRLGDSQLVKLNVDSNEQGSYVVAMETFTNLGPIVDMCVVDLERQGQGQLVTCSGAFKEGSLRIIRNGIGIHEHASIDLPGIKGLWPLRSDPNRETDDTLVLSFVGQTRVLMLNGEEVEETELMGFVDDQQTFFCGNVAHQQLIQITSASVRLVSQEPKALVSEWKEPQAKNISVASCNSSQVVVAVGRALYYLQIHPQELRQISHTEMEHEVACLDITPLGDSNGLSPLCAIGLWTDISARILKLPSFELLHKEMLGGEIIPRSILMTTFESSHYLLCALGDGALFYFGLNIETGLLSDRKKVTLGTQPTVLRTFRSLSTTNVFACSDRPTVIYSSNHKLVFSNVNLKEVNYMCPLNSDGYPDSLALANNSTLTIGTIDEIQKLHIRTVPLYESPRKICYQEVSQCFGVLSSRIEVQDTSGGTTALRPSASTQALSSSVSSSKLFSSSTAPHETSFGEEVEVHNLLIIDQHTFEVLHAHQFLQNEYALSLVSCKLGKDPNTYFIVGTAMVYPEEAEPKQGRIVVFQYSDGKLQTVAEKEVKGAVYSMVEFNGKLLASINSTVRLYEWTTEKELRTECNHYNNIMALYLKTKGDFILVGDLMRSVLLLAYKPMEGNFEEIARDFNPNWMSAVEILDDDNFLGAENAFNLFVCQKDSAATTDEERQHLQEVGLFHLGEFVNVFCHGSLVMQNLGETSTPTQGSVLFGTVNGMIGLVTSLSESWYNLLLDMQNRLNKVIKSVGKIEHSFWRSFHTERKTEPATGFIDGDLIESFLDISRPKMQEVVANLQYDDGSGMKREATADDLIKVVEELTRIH
Summary of the method: (§1)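 hPBMCs (1×10^6 cells/mL) were treated with compound at 50 nM and 500 nM for 24 h, lysed in RIPA with protease inhibitors and analysed by SDS-PAGE/Western blot. Band grayscale, normalised to internal control, gave protein remaining (%); DC50 estimated versus DMSO bands.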

WEE1 = molecular target: T2, WEE1 (Homo sapiens, UniProt P30291+Q96SW2); experiment: Western blot degradation of WEE1 in hPBMCs (24 h)
T2 construct: The supernatant was aspirated as the extracted total cell protein; endogenous in cells; host or cells: human peripheral blood mononuclear cells (hPBMCs)
T2 sequence (P30291 whole entry): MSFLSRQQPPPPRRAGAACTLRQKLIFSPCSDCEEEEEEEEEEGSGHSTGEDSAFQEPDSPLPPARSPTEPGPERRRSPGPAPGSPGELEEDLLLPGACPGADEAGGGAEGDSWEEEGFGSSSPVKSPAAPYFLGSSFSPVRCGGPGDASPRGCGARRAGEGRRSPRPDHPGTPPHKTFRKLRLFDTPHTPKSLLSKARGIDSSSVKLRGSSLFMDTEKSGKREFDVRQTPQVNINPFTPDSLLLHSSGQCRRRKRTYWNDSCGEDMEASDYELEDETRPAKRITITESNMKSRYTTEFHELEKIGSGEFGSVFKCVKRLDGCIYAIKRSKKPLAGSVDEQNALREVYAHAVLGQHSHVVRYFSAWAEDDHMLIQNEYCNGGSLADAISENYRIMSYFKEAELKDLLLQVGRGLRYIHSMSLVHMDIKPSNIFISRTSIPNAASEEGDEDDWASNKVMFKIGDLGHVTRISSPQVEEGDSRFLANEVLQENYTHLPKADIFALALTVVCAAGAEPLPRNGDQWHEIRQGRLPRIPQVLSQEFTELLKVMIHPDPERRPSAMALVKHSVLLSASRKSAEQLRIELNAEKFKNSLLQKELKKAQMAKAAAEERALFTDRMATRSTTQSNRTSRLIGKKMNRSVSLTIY
T2 sequence (Q96SW2 whole entry): as the sequence (Q96SW2 whole entry) above
T2 sequence (Q16531 whole entry partner): as the sequence (Q16531 whole entry partner) above
Summary of the method: as §1

IKZF1 = molecular target: T3, IKZF1 (Homo sapiens, UniProt Q13422+Q96SW2); experiment: Western blot degradation of IKZF1 in hPBMCs (24 h)
T3 construct: The supernatant was aspirated as the extracted total cell protein; endogenous in cells; host or cells: human peripheral blood mononuclear cells (hPBMCs)
Summary of the method: as §1

IKZF2 = molecular target: T4, IKZF2 (Homo sapiens, UniProt Q96SW2+Q9UKS7); experiment: Western blot degradation of IKZF2 in hPBMCs (24 h)
T4 construct: The supernatant was aspirated as the extracted total cell protein; endogenous in cells; host or cells: human peripheral blood mononuclear cells (hPBMCs)
T4 sequence (Q9UKS7 whole entry): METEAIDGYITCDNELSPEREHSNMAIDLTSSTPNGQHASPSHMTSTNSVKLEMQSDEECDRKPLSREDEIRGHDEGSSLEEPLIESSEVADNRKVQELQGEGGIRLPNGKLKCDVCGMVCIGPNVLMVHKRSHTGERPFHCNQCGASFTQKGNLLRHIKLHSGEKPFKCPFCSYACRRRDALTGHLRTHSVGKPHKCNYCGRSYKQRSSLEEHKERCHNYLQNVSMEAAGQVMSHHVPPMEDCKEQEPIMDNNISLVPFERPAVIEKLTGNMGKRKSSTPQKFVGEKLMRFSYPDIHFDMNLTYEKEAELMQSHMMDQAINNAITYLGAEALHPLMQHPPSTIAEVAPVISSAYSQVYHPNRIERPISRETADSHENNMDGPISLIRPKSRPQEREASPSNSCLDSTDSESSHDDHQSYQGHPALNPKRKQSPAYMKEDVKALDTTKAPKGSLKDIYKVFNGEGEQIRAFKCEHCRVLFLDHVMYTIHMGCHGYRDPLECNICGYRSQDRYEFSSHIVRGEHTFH
T4 sequence (Q96SW2 whole entry): as the sequence (Q96SW2 whole entry) above
T4 sequence (Q16531 whole entry partner): as the sequence (Q16531 whole entry partner) above
Summary of the method: as §1

IKZF3 = molecular target: T5, IKZF3 (Homo sapiens, UniProt Q96SW2+Q9UKT9); experiment: Western blot degradation of IKZF3 in hPBMCs (24 h)
T5 construct: The supernatant was aspirated as the extracted total cell protein; endogenous in cells; host or cells: human peripheral blood mononuclear cells (hPBMCs)
T5 sequence (Q9UKT9 whole entry): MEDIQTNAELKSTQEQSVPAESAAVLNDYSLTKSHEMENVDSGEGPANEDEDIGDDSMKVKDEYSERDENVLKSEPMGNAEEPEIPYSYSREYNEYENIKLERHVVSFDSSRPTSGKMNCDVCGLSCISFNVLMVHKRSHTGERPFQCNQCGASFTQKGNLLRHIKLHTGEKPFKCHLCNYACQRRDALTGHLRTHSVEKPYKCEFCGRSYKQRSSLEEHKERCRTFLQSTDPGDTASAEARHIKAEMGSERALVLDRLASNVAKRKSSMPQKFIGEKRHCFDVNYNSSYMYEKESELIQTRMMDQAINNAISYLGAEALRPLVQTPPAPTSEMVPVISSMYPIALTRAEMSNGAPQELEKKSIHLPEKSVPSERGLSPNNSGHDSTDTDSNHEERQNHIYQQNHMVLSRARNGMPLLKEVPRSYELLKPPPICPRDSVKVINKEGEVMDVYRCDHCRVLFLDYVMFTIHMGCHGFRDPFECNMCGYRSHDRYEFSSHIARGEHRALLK
T5 sequence (Q96SW2 whole entry): as the sequence (Q96SW2 whole entry) above
T5 sequence (Q16531 whole entry partner): as the sequence (Q16531 whole entry partner) above
Summary of the method: as §1

GSPT1 = molecular target: T6, GSPT1 (Homo sapiens, UniProt P15170+Q96SW2); experiment: Western blot degradation of GSPT1 in hPBMCs (24 h)
T6 construct: The supernatant was aspirated as the extracted total cell protein; endogenous in cells; host or cells: human peripheral blood mononuclear cells (hPBMCs)
T6 sequence (P15170 whole entry): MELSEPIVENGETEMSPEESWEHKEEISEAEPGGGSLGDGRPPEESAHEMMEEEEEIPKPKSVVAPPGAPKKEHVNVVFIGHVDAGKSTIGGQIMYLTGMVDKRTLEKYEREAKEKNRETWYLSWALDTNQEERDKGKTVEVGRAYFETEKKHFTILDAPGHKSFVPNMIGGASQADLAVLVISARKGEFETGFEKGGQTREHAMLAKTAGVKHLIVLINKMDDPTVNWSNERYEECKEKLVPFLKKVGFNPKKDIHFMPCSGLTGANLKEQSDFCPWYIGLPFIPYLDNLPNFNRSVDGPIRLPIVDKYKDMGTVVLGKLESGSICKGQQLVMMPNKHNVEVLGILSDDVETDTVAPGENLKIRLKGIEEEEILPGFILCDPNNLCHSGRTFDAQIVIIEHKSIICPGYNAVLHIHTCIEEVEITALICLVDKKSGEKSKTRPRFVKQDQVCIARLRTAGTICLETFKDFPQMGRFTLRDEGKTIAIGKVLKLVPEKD
T6 sequence (Q96SW2 whole entry): as the sequence (Q96SW2 whole entry) above
T6 sequence (Q16531 whole entry partner): as the sequence (Q16531 whole entry partner) above
Summary of the method: as §1

Compound	CK1α substrate protein remaining % (CK1α)	WEE1 substrate protein remaining % (WEE1)	IKZF1 substrate protein remaining % (IKZF1)	IKZF2 substrate protein remaining % (IKZF2)	IKZF3 substrate protein remaining % (IKZF3)	GSPT1 substrate protein remaining % (GSPT1)
O=C1CCN(N2C(=O)c3ccc(CN4C5CCC4CN(c4cccc(Cl)c4Cl)C5)cc3C2=O)C(=O)N1 [GT-07438, 5-((3-(2,3-dichlorophenyl)-3,8-diazabicyclo[3.2.1]octan-8-yl)methyl)-2-(2,4-dioxotetrahydropyrimidin-1(2H)-yl)isoindoline-1,3-dione]	A (0% ≤ substrate protein remaining % ≤80%)	A (0% ≤ substrate protein remaining % ≤80%)	B (80%< substrate protein remaining % ≤100%)	B (80%< substrate protein remaining % ≤100%)	B (80%< substrate protein remaining % ≤100%)	A (0% ≤ substrate protein remaining % ≤80%)
O=C1CCN(N2C(=O)c3ccc(CN4CCC(c5ncnc6sc(-c7ccccc7)cc56)CC4)cc3C2=O)C(=O)N1 [GT-08108, 2-(2,4-dioxotetrahydropyrimidin-1(2H)-yl)-5-((4-(6-phenylthieno[2,3-d]pyrimidin-4-yl)piperidin-1-yl)methyl)isoindoline-1,3-dione]	A (0% ≤ substrate protein remaining % ≤80%)	A (0% ≤ substrate protein remaining % ≤80%)	A (0% ≤ substrate protein remaining % ≤80%)	A (0% ≤ substrate protein remaining % ≤80%)	A (0% ≤ substrate protein remaining % ≤80%)	A (0% ≤ substrate protein remaining % ≤80%)
O=C1CCN(N2C(=O)c3ccc(CN4CCN(c5ccc(C(F)(F)F)cn5)CC4)cc3C2=O)C(=O)N1 [GT-06968, 2-(2,4-dioxotetrahydropyrimidin-1(2H)-yl)-5-((4-(5-(trifluoromethyl)pyridin-2-yl)piperazin-1-yl)methyl)isoindoline-1,3-dione]	B (80%< substrate protein remaining % ≤100%)	A (0% ≤ substrate protein remaining % ≤80%)	B (80%< substrate protein remaining % ≤100%)	A (0% ≤ substrate protein remaining % ≤80%)	B (80%< substrate protein remaining % ≤100%)	B (80%< substrate protein remaining % ≤100%)
O=C1CCN(N2C(=O)c3ccc(CN4CCN(C(c5ccc(F)cc5)c5ccc(F)cc5)CC4)cc3C2=O)C(=O)N1 [GT-05268, 5-((4-(bis(4-fluorophenyl)methyl)piperazin-1-yl)methyl)-2-(2,4-dioxotetrahydropyrimidin-1(2H)-yl)isoindoline-1,3-dione]	A (0% ≤ substrate protein remaining % ≤80%)	B (80%< substrate protein remaining % ≤100%)	B (80%< substrate protein remaining % ≤100%)	B (80%< substrate protein remaining % ≤100%)	A (0% ≤ substrate protein remaining % ≤80%)	A (0% ≤ substrate protein remaining % ≤80%)
O=C1CCN(N2C(=O)c3ccc(CN4CCN(Cc5ccccc5-c5ccc(Cl)cc5)CC4)cc3C2=O)C(=O)N1 [GT-06432, 5-((4-((4′-chloro-[1,1′-biphenyl]-2-yl)methyl)piperazin-1-yl)methyl)-2-(2,4-dioxotetrahydropyrimidin-1(2H)-yl)isoindoline-1,3-dione]	B (80%< substrate protein remaining % ≤100%)	A (0% ≤ substrate protein remaining % ≤80%)	A (0% ≤ substrate protein remaining % ≤80%)	B (80%< substrate protein remaining % ≤100%)	B (80%< substrate protein remaining % ≤100%)	A (0% ≤ substrate protein remaining % ≤80%)
O=C1CCN(N2Cc3cc(CN4CCC(c5ccc(Cl)cc5)CC4)ccc3C2=O)C(=O)N1 [GT-06888, 1-(5-((4-(4-chlorophenyl)piperidin-1-yl)methyl)-1-oxoisoindolin-2-yl)dihydropyrimidine-2,4(1H,3H)-dione]	B (80%< substrate protein remaining % ≤100%)	A (0% ≤ substrate protein remaining % ≤80%)	B (80%< substrate protein remaining % ≤100%)	A (0% ≤ substrate protein remaining % ≤80%)	B (80%< substrate protein remaining % ≤100%)	A (0% ≤ substrate protein remaining % ≤80%)
O=C1CCN(N2Cc3cc(CN4CCN(c5nc(Cl)nc6c5SCC6)CC4)ccc3C2=O)C(=O)N1 [GT-08439, 1-(5-((4-(2-chloro-6,7-dihydrothieno[3,2-d]pyrimidin-4-yl)piperazin-1-yl)methyl)-1-oxoisoindolin-2-yl)dihydropyrimidine-2,4(1H,3H)-dione]	B (80%< substrate protein remaining % ≤100%)	A (0% ≤ substrate protein remaining % ≤80%)	A (0% ≤ substrate protein remaining % ≤80%)	B (80%< substrate protein remaining % ≤100%)	A (0% ≤ substrate protein remaining % ≤80%)	A (0% ≤ substrate protein remaining % ≤80%)
O=C1CCN(N2C(=O)c3ccc(CN4CCC(N5CCc6cc(F)ccc65)CC4)cc3C2=O)C(=O)N1 [GT-05260, 2-(2,4-dioxotetrahydropyrimidin-1(2H)-yl)-5-((4-(5-fluoroindolin-1-yl)piperidin-1-yl)methyl)isoindoline-1,3-dione]	B (80%< substrate protein remaining % ≤100%)	A (0% ≤ substrate protein remaining % ≤80%)	A (0% ≤ substrate protein remaining % ≤80%)	A (0% ≤ substrate protein remaining % ≤80%)	B (80%< substrate protein remaining % ≤100%)	B (80%< substrate protein remaining % ≤100%)
O=C1CCN(N2C(=O)c3ccc(CN4CC=C(c5ncnc6sc(-c7ccccc7)cc56)CC4)cc3C2=O)C(=O)N1 [GT-08430, 2-(2,4-dioxotetrahydropyrimidin-1(2H)-yl)-5-((4-(6-phenylthieno[2,3-d]pyrimidin-4-yl)-3,6-dihydropyridin-1(2H)-yl)methyl)isoindoline-1,3-dione]	B (80%< substrate protein remaining % ≤100%)	A (0% ≤ substrate protein remaining % ≤80%)	B (80%< substrate protein remaining % ≤100%)	B (80%< substrate protein remaining % ≤100%)	B (80%< substrate protein remaining % ≤100%)	B (80%< substrate protein remaining % ≤100%)
O=C1CCN(N2C(=O)c3ccc(CN4CCN(c5ccsc5)CC4)cc3C2=O)C(=O)N1 [GT-05313, 2-(2,4-dioxotetrahydropyrimidin-1(2H)-yl)-5-((4-(thiophen-3-yl)piperazin-1-yl)methyl)isoindoline-1,3-dione]	B (80%< substrate protein remaining % ≤100%)	B (80%< substrate protein remaining % ≤100%)	B (80%< substrate protein remaining % ≤100%)	B (80%< substrate protein remaining % ≤100%)	B (80%< substrate protein remaining % ≤100%)	A (0% ≤ substrate protein remaining % ≤80%)
O=C1CCN(N2C(=O)c3ccc(CN4CCN(c5nc(Cl)nc6c5SCC6)CC4)cc3C2=O)C(=O)N1 [GT-08448, 5-((4-(2-chloro-6,7-dihydrothieno[3,2-d]pyrimidin-4-yl)piperazin-1-yl)methyl)-2-(2,4-dioxotetrahydropyrimidin-1(2H)-yl)isoindoline-1,3-dione]	B (80%< substrate protein remaining % ≤100%)	B (80%< substrate protein remaining % ≤100%)	B (80%< substrate protein remaining % ≤100%)	B (80%< substrate protein remaining % ≤100%)	B (80%< substrate protein remaining % ≤100%)	A (0% ≤ substrate protein remaining % ≤80%)
O=C1CCN(N2C(=O)c3ccc(CN4CCN(c5ccncc5Cl)CC4)cc3C2=O)C(=O)N1 [GT-07165, 5-((4-(3-chloropyridin-4-yl)piperazin-1-yl)methyl)-2-(2,4-dioxotetrahydropyrimidin-1(2H)-yl)isoindoline-1,3-dione]	B (80%< substrate protein remaining % ≤100%)	B (80%< substrate protein remaining % ≤100%)	B (80%< substrate protein remaining % ≤100%)	A (0% ≤ substrate protein remaining % ≤80%)	B (80%< substrate protein remaining % ≤100%)	A (0% ≤ substrate protein remaining % ≤80%)
